{"source": "patent US12023330B2", "about": "“Use of manzamines as antiproliferative agent” (priority 2020, dated 2024)", "key": {"[1]": {"system": "C33A, HeLa, SiHa and CaSki cell lines", "assay": "Cell growth kinetics", "format": "cell-based, human", "description": "To maintain the treatment uniformity across the cell lines, we selected optimal dose concentration of 1 to 4 μM, and treated C33A, HeLa, SiHa and CaSki cell lines.\nCell Growth Kinetics. Cervical cancer cells (1×10^6) or HKc (2×10^5) were plated in 100 mm tissue culture petri dish or 6-well plates. Following overnight incubation, cells were treated with 2 μM or 4 μM concentrations of manzamine A (1) derivatives for different time points (24, 48 and 72 hours). Dimethyl sulphoxide (DMSO) was used as control. The cell proliferation activity was determined by cell counting under the microscope with a hemocytometer using trypan blue staining."}, "[2]": {"system": "p53, p21, cyclin D1, total Rb, phospho-Rb", "assay": "Protein expression analysis of cell cycle regulatory proteins", "format": "cell-based, human", "settings": "2 and 4 μM, 48 h", "source_text": "Molecular Targets of Manzamine A (1). HeLa, SiHa and CaSki cell lines represent the most common form of cervical cancer infected by the HPV type 16 (SiHa and CaSki) and 18 (HeLa). Cervical cancer is primarily aggravated by the sustained expression of HPV-derived E6 and E7 oncogenes utilizing distinct mechanisms that affect cell-cycle checkpoints. For instance, E6 promotes p53 degradation, while E7 is associated with phosphorylation of retinoblastoma (Rb) proteins. See (22) Huh, K.; Zhou, X.; Hayakawa, H.; Cho, J. Y.; Libermann, T. A.; Jin, J.; Harper, J. W.; Munger, K. J. Virol. 2007, 81, 9737-9747 and Talis, A. L.; Huibregtse, J. M.; Howley, P. M. J. Biol. Chem. 1998, 273, 6439-6445. Both p53 and Rb are tumor suppressor genes and play a critical role in maintaining cell cycle regulation. Additionally, interaction of cyclin D1 with Rb protein and their expression levels correlate positively in association with tumorigenesis. Therefore, we sought to examine the molecular targets of manzamine A leading to anti-cancer activity in cervical cancer. […] Following the overnight attachment of 1×10^6 cells/well, the cells were treated with manzamine A (1) at 2 and 4 μM concentrations and incubated for 48 h. Cell lysates were prepared for protein analysis. […] However, detailed mechanistic studies of manzamine A determining anti-cancer effect are required to further substantiate these observations.\nProtein Expression Analysis. C33A, HeLa, SiHa and CaSki cells were seeded at a density of 1×10^6 cells/100 mm petri dish. The next day, the cells were treated with 2 μM or 4 μM concentrations of manzamine A (1) or with 10, 20, or 40 μM concentrations with apigenin (Sigma, MO) and incubated for 48 hours. At the given time-point, the cells were harvested by trypsinization, washed with PBS, and lysed using radioimmunoprecipitation assay (RIPA) buffer containing a cocktail of protease inhibitors (Sigma, MO) to extract protein. Following quantification by colorimetric assay (Bio-Rad), equal amount of protein was loaded on to SDS-polyacrylamide gel and transferred to polyvinylidene difluoride (PVDF) membrane, which was blocked in 5% non-fat dry milk in tris-buffered saline with tween-20 (TBST) and incubated with primary antibody against p53, p21, Cyclin D1, SIX1, GAPDH (Cell signaling) or CK2α (R&D Systems) at a 1:500 dilution. For total CK2a, Rb and pRb, the blocking and antibody dilutions were made in 3% bovine serum albumin (BSA). The membrane was washed with TBST and incubated with secondary IgG HRP conjugate at 1:2000 dilution. The specific band of the protein was visualized with chemiluminescence reagent exposed onto BioMax Film (Kodak) and ChemoDoc-it^2 imager (UVP)."}, "[3]": {"system": "SiHa cells", "assay": "Apoptosis analysis (annexin V and PI staining)", "format": "cell-based, human", "settings": "4 μM, 48 hours", "description": "(§1) Since programmed cell death (apoptosis) is a key mechanism by which anti-cancer drugs kill cancer cells, we determined the apoptotic effect of manzamine A on cervical cancer cells using annexin V and PI staining. […] Given the sensitivity of C33A and HeLa cell lines to manzamine A, an increase in apoptosis was expected. […] CaSki cells were the least sensitive and corresponds to the IC50 values as in FIG. 2.\n(§2) Cell-cycle and Apoptosis Analysis. Cervical cancer cells were seeded and treated with different concentrations of manzamine A (1) as above. Following trypsinization, one part of the cells was washed with PBS and fixed in chilled 70% ethanol on ice for 30 min. Cells were treated with RNAse A (1 mg/ml) at room temperature for 30 min and stained with propidium iodide (PI: 20 μg/ml). Cell-cycle distribution was analyzed by flow cytometry (Beckman Coulter Epics Elite, Beckman). A minimum of 10,000 events were counted per sample, and the data were analyzed using CXP software (Beckman Coulter) for the proportions of cells in G0/G1, S and G2/M phases of the cell cycle. The second part of the cells were washed twice with PBS and re-suspended in the buffer containing Alexa Fluor conjugated-Annexin-V and PI (Life Technologies, USA). The double staining of the cells was analyzed by flow cytometric analysis. A total of 10,000 cell events were collected to analyze the extent of early, late apoptosis, or necrosis from each sample with the percentages of bound annexin-V^+/PI^−, annexin V^+/PI^+, and annexin V^−/PI^+, respectively."}, "[4]": {"system": "HeLa cells", "assay": "Apoptosis analysis (annexin V and PI staining)", "format": "cell-based, human", "description": "as §1, §2"}, "[5]": {"system": "CaSki cells", "assay": "Apoptosis analysis (annexin V and PI staining)", "format": "cell-based, human", "settings": "4 μM, 48 hours", "description": "as §1, §2"}, "[6]": {"system": "C33A cells", "assay": "Apoptosis analysis (annexin V and PI staining)", "format": "cell-based, human", "description": "as §1, §2"}, "[7]": {"assay": "Weight loss at high doses", "format": "in vivo", "source_text": "The manzamine class of marine alkaloids is attractive in its potential for the development of novel therapeutics. This group has among the most extensively studied marine natural products to date, being found in more than 16 species of Indo-Pacific sponges distributed within distinct geographical regions. […] These molecules also show interesting activity as neuroprotective and anti-inflammatory agents, HIV/AIDS-associated opportunistic infections, and inhibition of cancer proliferative and metastatic activity. See Ridley, R. G.; Matile, H.; Jaquet, C.; Dorn, A.; Hofheinz, W.; Leupin, W.; Masciadri, R.; Theil, F. P.; Richter, W. F.; Girometta, M. A.; Guenzi, A.; Urwyler, H.; Gocke, E.; Potthast, J. M.; Csato, M.; Thomas, A.; Peters, W. Antimicrob. Agents Chemother. 1997, 41, 677-686. […] It is anticipated that short-term weight-loss would be less problematic or would not necessarily offset the therapeutic gain in cancer patients."}}}
{"smiles": "O[C@]12C=C(c3nccc4c3[nH]c3ccccc34)[C@@H]3CCN(CCCC/C=C\\CC1)C[C@@]31C[C@@H]3/C=C\\CCCCN3[C@H]12", "note": "[manzamine A]", "values": [{"measurement": "cervical cancer cell proliferation", "setting": "[1]; 1 to 4 μM, time- and dose-dependent, vs DMSO control", "result": "significantly inhibited"}, {"measurement": "anti-proliferative, non-cytotoxic concentrations", "setting": "[1]; cervical cancer cells", "result": "up to 4 μM"}, {"measurement": "p21 protein level", "setting": "[2]; C33A", "result": "not-detectable"}, {"measurement": "p53 protein level", "setting": "[2]; C33A", "result": "did not show any change"}, {"measurement": "p21 level", "setting": "[2]; HeLa", "result": "remains unchanged"}, {"measurement": "p53 level", "setting": "[2]; HeLa", "result": "marginal increase"}, {"measurement": "cyclin D1, total Rb, and phospho-Rb protein level", "setting": "[2]; SiHa and CaSki", "result": "inhibition"}, {"measurement": "p53 and p21 protein level", "setting": "[2]; SiHa and CaSki", "result": "increase"}, {"measurement": "percentage of induced apoptotic cells (apoptosis+ necrosis)", "setting": "[3]", "result": 33.6, "unit": "%"}, {"measurement": "percentage of induced apoptotic cells (apoptosis+ necrosis)", "setting": "[4]; 4 μM, 48 hours", "result": 75.9, "unit": "%"}, {"measurement": "apoptosis", "setting": "[4]; forty-eight hours treatment", "result": "significant increase"}, {"measurement": "percentage of induced apoptotic cells (apoptosis+ necrosis)", "setting": "[5]", "result": 23.2, "unit": "%"}, {"measurement": "percentage of induced apoptotic cells (apoptosis+ necrosis)", "setting": "[6]; 4 μM, 48 hours", "result": 36.5, "unit": "%"}, {"measurement": "apoptosis and necrosis", "setting": "[6]; 24 hours", "result": "induces apoptosis"}, {"measurement": "body weight", "setting": "[7]", "result": "weight loss"}]}
